Assay results published in ChEMBL document CHEMBL1201862, “PubChem BioAssay data set” (2004).
Activity calls are given as the source filed them. No stated cut-off is given here; in the data, actives have a measured IC50 and inactives only a lower limit.

What was measured:
Assay type in all cases: functional
[1] = target: T1, Caspase-3 (Homo sapiens, UniProt P42574);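 further: Dose-response selectivity test against caspase-3 for candidate inhibitors of sentrin-specific proteases (SENPs)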
T1 sequence (P42574 whole entry): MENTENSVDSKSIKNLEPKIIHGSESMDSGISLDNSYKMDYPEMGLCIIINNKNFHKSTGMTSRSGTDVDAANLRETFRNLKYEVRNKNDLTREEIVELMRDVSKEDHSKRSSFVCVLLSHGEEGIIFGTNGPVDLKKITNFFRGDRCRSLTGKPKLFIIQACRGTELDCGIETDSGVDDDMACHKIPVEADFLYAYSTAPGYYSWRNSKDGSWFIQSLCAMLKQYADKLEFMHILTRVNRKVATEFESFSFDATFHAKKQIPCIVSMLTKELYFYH

[2] = target: T2, Sentrin-specific protease 7 (Homo sapiens, UniProt Q9BQF6);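 further: Luminescence-based dose-response confirmation of ultra-high-throughput screening hits, measuring inhibition of SENP7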
T2 sequence (Q9BQF6 whole entry): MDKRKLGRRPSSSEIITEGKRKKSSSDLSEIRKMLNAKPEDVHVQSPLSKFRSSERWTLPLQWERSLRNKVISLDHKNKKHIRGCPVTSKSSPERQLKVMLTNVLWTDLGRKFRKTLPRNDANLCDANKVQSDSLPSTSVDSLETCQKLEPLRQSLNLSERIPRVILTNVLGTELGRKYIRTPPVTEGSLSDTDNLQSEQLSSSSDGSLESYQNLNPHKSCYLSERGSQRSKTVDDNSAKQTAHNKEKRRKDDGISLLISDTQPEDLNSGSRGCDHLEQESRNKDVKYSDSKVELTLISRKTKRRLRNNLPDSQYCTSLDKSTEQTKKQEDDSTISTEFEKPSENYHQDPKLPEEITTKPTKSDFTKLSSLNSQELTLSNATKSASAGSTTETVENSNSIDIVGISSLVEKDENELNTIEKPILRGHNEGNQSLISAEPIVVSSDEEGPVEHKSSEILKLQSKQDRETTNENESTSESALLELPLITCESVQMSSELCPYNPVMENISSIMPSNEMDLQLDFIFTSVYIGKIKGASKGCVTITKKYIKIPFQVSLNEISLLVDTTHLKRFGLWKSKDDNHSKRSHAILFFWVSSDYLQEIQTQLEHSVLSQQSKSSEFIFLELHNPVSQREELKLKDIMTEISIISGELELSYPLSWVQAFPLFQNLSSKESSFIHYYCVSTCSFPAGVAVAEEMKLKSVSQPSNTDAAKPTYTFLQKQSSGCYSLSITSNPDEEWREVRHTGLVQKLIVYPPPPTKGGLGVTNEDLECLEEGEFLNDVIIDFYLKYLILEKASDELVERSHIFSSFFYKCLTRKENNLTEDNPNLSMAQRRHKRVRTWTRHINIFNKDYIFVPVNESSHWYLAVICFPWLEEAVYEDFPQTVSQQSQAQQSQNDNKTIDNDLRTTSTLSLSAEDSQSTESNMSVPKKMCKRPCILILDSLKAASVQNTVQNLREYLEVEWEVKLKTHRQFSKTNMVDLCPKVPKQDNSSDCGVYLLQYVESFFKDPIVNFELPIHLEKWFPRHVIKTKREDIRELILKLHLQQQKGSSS

[3] = target: T3, Sentrin-specific protease 6 (Homo sapiens, UniProt Q9GZR1);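 further: Luminescence-based dose-response confirmatory assay of SENP6 inhibition, following up an ultra-high-throughput screen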
T3 sequence (Q9GZR1 whole entry): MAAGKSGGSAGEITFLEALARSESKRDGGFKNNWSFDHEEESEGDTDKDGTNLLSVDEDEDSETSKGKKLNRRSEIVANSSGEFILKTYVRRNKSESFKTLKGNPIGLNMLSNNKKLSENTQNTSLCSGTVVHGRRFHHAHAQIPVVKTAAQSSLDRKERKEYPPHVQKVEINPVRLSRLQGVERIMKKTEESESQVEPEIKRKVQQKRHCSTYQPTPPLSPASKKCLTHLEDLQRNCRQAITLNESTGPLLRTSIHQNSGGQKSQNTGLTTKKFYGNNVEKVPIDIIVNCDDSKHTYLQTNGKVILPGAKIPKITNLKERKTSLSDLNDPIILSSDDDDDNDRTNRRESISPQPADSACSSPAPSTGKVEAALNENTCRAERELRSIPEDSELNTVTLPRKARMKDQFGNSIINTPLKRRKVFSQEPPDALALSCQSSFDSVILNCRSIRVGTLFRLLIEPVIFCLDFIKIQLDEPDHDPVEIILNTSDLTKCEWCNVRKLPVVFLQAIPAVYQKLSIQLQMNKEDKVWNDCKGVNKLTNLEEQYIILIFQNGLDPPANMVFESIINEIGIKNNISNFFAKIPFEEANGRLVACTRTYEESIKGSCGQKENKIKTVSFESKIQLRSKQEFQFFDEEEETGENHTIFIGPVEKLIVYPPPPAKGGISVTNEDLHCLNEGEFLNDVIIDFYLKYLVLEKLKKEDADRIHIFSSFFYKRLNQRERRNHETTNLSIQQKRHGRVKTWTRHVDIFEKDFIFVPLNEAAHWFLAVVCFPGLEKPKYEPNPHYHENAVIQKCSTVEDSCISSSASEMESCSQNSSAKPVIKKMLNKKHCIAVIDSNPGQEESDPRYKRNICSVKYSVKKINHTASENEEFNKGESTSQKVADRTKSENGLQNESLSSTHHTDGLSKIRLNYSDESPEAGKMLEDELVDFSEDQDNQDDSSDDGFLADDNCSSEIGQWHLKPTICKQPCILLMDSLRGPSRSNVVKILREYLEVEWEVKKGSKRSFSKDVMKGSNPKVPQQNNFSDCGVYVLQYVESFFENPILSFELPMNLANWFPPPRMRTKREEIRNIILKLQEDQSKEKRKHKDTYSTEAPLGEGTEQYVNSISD

[4] = target: T4, Sentrin-specific protease 8 (Homo sapiens, UniProt Q96LD8);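 further: luminescence read-out of SENP8 inhibition, dose-response confirmation following an ultra-high-throughput screen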
T4 sequence (Q96LD8 whole entry): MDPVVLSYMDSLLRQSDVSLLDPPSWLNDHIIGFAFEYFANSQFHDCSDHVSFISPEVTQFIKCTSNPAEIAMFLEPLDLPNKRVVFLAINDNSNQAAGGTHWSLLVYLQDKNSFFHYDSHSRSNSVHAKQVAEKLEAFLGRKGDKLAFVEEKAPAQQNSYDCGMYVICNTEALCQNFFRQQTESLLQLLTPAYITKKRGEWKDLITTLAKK

[5] = target: T4, Sentrin-specific protease 8; assay: inhibition of human SENP8 cleavage activity – biochemical, luminescence, SAR follow-up (AID 504501)

Compound	IC50 [1]	IC50 [2]	IC50 [3]	IC50 [4]	IC50 [5]
O=Nc1c(-c2c(O)[nH]c3cc(Br)ccc23)[nH]c2ccccc12	64.3 µM (active)	5.6 µM (active)	> 100 µM (inactive)	> 100 µM (inactive)	–
Cc1ccc(NC(=O)COc2cccc(/C=C3\SC(=S)N(CCC(=O)O)C3=O)c2)cc1Cl	70 µM (active)	18.3 µM (active)	> 100 µM (inactive)	3.14 µM (active)	> 99 µM (inactive)
